# Assay results taken from patent publication US10077433B2, “Permuted and nonpermuted luciferase biosensors” (PROMEGA CORPORATION, priority 2006, dated 2018).
# Legend:
# [1] = test system: cyclic AMP dependent protein kinase catalytic subunit; settings: cited from earlier work
# [2] = test system: intracellular cAMP concentration, HEK 293 cells; experiment: Intracellular cAMP changes in HEK293 cells with CPM-hRL Luc/RIIβB biosensors (isopreterenol, propranolol, forskolin); format: cell-based; settings: for increase in light output: HEK293 cells stably expressing CPM91-hRL/RIIβB, isopreterenol and forskolin treatment; for increase in light output from transfected cells: HEK 293 transiently transfected with CPM-hRL Luc/RIIβB (X=4, Y=20) constructs, 10 μM isopreterenol or 50 μM forskolin alone
# Experimental: Cells were cultured in 2 mL DMEM/F12 with HEPES buffer (Invitrogen) and 10% FBS at 37° C. with 5% CO2 in a 6 well plate. Three of the constructs described in Example XVII were used to detect intracellular changes of cAMP concentrations. The constructs used were: pBFB277, pBFB279 and pBFB287. HEK293 cells stably expressing CPM91-hRL/RIIβB (ORF derived from 201325.44.H6 were also used in these experiments. HEK293 cells were transfected with TransIt®-LT1 Reagent (MIRUS) using 6 μL TransIt®-LT1 reagent and 2 μg DNA (pBFB277, pBFB279 and pBFB287) per well of a 6 well plate. Cells were allowed to grow overnight and were assayed the next day. Approximately 1 day after transfection, cells were trypsinized, resuspended in fresh DMEM/F12 with HEPES buffer (Invitrogen) with 1% FBS and plated in a 96 well plate at approximately 10,000 cells per well. Alternatively, a HEK293 cell line stably expressing CP91-hRL/RIIβB was plated in a 96 well plate at approximately 10,000 cells per well. A 10 μL aliquot of 600 μM EnduRen was added to a total of 100 μL of cell culture to give a final concentration of approximately […]. Cells were then incubated at 37° C. with 5% CO2. After 5 hours, the plate was removed from the incubator and allowed to cool to room temperature for at least 20 minutes. After 20 minutes, baseline measurements of luminescence were measured using a 96 well Veritas Luminometer (Turner Biosystems; integration time of 0.5 seconds per well). Cells were then induced with 10 μM isopreterenol (CalBiochem), 50 μM forskolin (Sigma) or not induced (0.1% DMSO, Sigma) and luminescence was measured continuously for about 30 minutes. After 30 minutes, 10 μM propranolol (Sigma) was added to cells already induced with isopreterenol and 0.1% DMSO was added to all other samples. Luminescence was then measured continuously for the next 30 minutes. A final addition of 50 μM forskolin was added to the isopreterenol/propranolol sample and 0.1% DMSO was added to all other samples. Luminescence was then measured continuously for the next half hour. Samples were measured in sets of 4-6 replicates. 10× stocks of isopreterenol, propranolol, forskolin and DMSO were made in DMEM/F12 with HEPES buffer (Invitrogen) and 1% FBS.
# [3] = test system: intracellular cAMP concentration, HEK 293 cells; experiment: Intracellular cAMP changes in HEK 293 cells transiently transfected with CPM-FF Luc/RIIβB (pBFB141); format: cell-based; settings: for increase in light output from transfected cells: HEK 293 cells, pBFB141, 10 μM isopreterenol or 50 mM forskolin (so in the source), treatment alone, room temperature
# Experimental: Cells were cultured in 60 ml in DMEM/F12 with HEPES buffer (Invitrogen) with 10% FBS at 37° C. with 5% CO2.
# The ORF encoding the CPM-FF Luc/RIIβB based cAMP biosensor with X/Y linker lengths of (X=10, Y=0) was transferred to Flexi vector pF4K (Flexi vector system; Promega Corp.). The resultant plasmid construct (pBFB141) utilizes an upstream CMV promoter for expression of the associated cAMP biosensor in mammalian cells.
# Cells were transfected with TransIt®-LT1 Reagent (MIRUS) using 0.3 μl TransIt®-LT1 reagent and 0.15 μg DNA per well of a 96 well plate. Cells were allowed to grow overnight and were assayed the next day.
# Approximately 1 day after transfection, cells were removed from the incubator and equilibrated to room temperature. A 5 μl aliquot of 100 mM Luciferin EF was added to a total of 90 μl of cell culture plus transfection reagent to give a final concentration of approximately 5 mM luciferin. Cells were then incubated at room temperature for at least 90 minutes. After 90 minutes at room temperature, baseline measurements of luminescence were measured using a 96 well Veritas Luminometer (Turner Biosystems; integration time of 0.5 seconds per well). Cells were then induced with 10 μM isopreterenol (CalBiochem), 50 mM forskolin (Sigma) or not induced (0.1% DMSO, Sigma) and luminescence was measured continuously for about 30 minutes. After 30 minutes, […] (Sigma) was added to cells with isopreterenol and 0.1% DMSO was added to all other samples. Luminescence was then measured continuously for the next 30 minutes. A final addition of 50 μM forskolin was added to the isopreterenol/propranolol sample and 0.1% DMSO was added to all other samples. Luminescence was then measured continuously for the next half hour. Samples were measured in sets of 12 replicates. 10× stocks of isopreterenol, propranolol, forskolin and DMSO were made in 1×PBS (Invitrogen).
# [4] = test system: intracellular cAMP, HEK293 cells; experiment: HEK293 cells stably expressing CP234-Luc/RIIB, forskolin stimulation and Z′ measurement; format: cell-based
# Experimental: The ORF from pBFB135, under the class of biosensors called “CPM-FF Luc/RIIβB,” was used to generate the transient and stable cells lines described below. These cell lines are called “CP234-Luc/RIIB,” “cAMP LucSensor,” “LucSensor,” and “FF cAMP Sensor.”
# HEK293 cells stably expressing CP234-Luc/RIIB (ORF derived from pBFB135) were resuspended in complete media and mixed with 5 mM luciferin-EF. Cells were plated at 1×10^5 cells per well in a 96 well plate and equilibrated to room temperature for 1.5 hours. After stimulation with forskolin, luminescence was measured at 15 minutes using a GloMax™ Luminometer.
# For a Z′ measurement, 2×10^4 cells were aliquoted per well to a 384-well plate and equilibrated using a similar protocol. Half the plate was induced with […], whereas the other half remained uninduced. Luminescence was captured 15 minutes after induction using a TECAN GENios Pro™ luminometer. The fold of induction was 6.1 and Z′ was 0.83. Since assays with Z′ greater than 0.5 are considered good quality for high-throughput screening (HTS), the cAMP biosensor-based assay is amenable for HTS.
# [5] = test system: intracellular cAMP, HEK-293 cells; experiment: Forskolin titration in HEK-293 cells transfected with CPM-hRL/RIIβB biosensor (201325.78.E5); format: cell-based
# Experimental: 100 μl HEK-293 cells were plated in a 96 well plate and grown to 70-90% confluency in DMEM/F12 with HEPES buffer (Invitrogen) with 10% FBS at 37° C. with 5% CO2.
# Cells were transfected with TransIt®-LT1 Reagent (MIRUS) using 0.3 μl TransIt®-LT1 reagent and 0.15 μg DNA (CPM-hRL/RIIβB cAMP biosensor with X/Y peptide linker lengths of (X=4, Y=20) (201325.78.E5)) per well of a 96-well plate. Cells were allowed to grow overnight and were assayed the next day.
# Approximately 1 day after transfection, cells were removed from incubator and equilibrated to room temperature. A 10 μl aliquot of 600 μM EnduRen Live Cell Substrate (Promega) was added to a total of 100 μl of cell culture to give a final concentration of approximately 60 μM coelentrazine. Cells were then incubated at room temperature for at least 15 minutes. After 15 minutes at room temperature, baseline measurements of luminescence were measured using a 96-well Veritas Luminometer (Turner) at 0.5 seconds per well. Cells were then induced with 0.025 μM-250 μM forskolin (Sigma) or not induced (0.1% DMSO (Sigma)) and luminescence was measured continuously for about 30 minutes (FIG. 19). Samples were measured in sets of 5 replicates per concentration of forskolin. EC50s were calculated using GraphPad Prism for Windows, Version 4.
# [6] = CPM hRL / GAF A domain biosensor, luminescence with or without exogenous cAMP (reticulocyte lysate); format: biochemical
# Experimental: An additional type of cAMP biosensor was constructed using a circularly permuted Renilla luciferase (hRL) and a GAF domain. The plasmid DNA construct encoding the following fusion protein: Met-(hRL 92-311)-[…]-(GAF A domain from Trypanosoma brucei PDE; Genbank AF192755 amino acids 241-375)-[…]-A-(hRL 3-91)-Val (SEQ ID NO:185) [clone pBFB232]. Following expression using the T7 Coupled Reticulocyte Lysate System, luminescence activity was measured in the presence or absence of exogenous cAMP. In the presence of cAMP, the measured activity was 7595 RLU; in the absence of cAMP, the measured activity was 298 RLU (about a 25 fold change). […] This type of reagent may allow the monitoring of changes in cAMP concentration in living cells, and it also may provide distinct advantages over existing FRET-based cAMP biosensors in that assay format. Moreover, since the GAF domain is a highly conserved fold in nature responsible for binding a wide range of molecules, it is likely that additional types of CPM hRL biosensors could be made using this fold.
Molecule,decrease in activity on phosphorylation by cyclic AMP dependent protein kinase [1],increase in light output [2],increase in light output from transfected cells [2],increase in light output from transfected cells [3],other results
LRRASLG,30%,,,,
CC(C)NCC(O)c1ccc(O)c(O)c1 (stereo not shown) [isopreterenol],,about 5 fold,approximately 2 fold,approximately 2 fold,
"RRFS: Photinus pyralis luciferase V217R mutant with site RRFS (SEQ ID NO:117), Sala-Newby et al.",up to 80%,,,,
C=C[C@@]1(C)CC(=O)[C@]2(O)[C@@]3(C)[C@@H](O)CCC(C)(C)[C@@H]3[C@H](O)[C@H](OC(C)=O)[C@@]2(C)O1 [forskolin],,about 5 fold,approximately 2 fold,approximately 2 fold,"fold of induction ([4]; 384-well plate, induced with 20 forskolin (so in the source), 15 minutes): 6.1 fold; EC50 ([4]; Homo sapiens, 0.25 h, HEK293 stably expressing CP234-Luc/RIIB, 96 well, luminescence at 15 minutes): 360 nM; light output above that of untreated cells at maximal levels ([5]; CPM-hRL/RIIβB X=4, Y=20 (201325.78.E5)): 3.6 fold; EC50 ([5]; Homo sapiens, HEK293, CPM-hRL/RIIβB X=4, Y=20 (201325.78.E5), read-out: EC50 of the forskolin response): 59 nM"
Wild type luciferase: wild type (firefly) luciferase control,,,,,response to known modulators of intracellular cAMP concentration ([3]; control constructs in HEK 293 cells): no specific response
pBFB232: CPM hRL 92-311/3-91 with GAF A domain from Trypanosoma brucei PDE (SEQ ID NO:185) (protein) MYRLLDHYKYLTAWFELLNLPKKIIFVGHDWGACLAFHYSYEHQDKIKAIVHAESVVDVIESWDEWPDIEEDIALIKSEEGEKMVLENNFFVETMLPSKIMRKLEPEEFAAYLEPFKEKGEVRRPTLSWPREIPLVKGGKPDVVQIVRNYNAYLRASDDLPKMFIESDPGFFSNAIVEGAKKFPNTEFVKVKGLHFSQEDAPDEMGKYIKSFVERVLKNEQGSSGGSGGSGGGSGGSGGSGSIMNTVKSLTESARCSLFLVRGDVLEAHFEDGNVVTIPRGAGIAGYVAQTGETVNIVDAYADDRFNREVDKATGYRTKTILCMPVMYEGTIVAVAQLINKLDLTTESGLRLPRVFGKRDEELFQTFSMFAGASLRGSGGSGGSGGTSGGSGGSSGASKVYDPEQRKRMITGPQWWARCKQMNVLDSFINYYDSEKHAENAVIFLHGNAASSYLWRHVVPHIEPVARCIIPDLIGMGKSGKSGNGSV,,,,,measured activity in the presence of cAMP ([6]; exogenous cAMP): 7595 RLU; measured activity in the absence of cAMP ([6]; no cAMP): 298 RLU; fold change with cAMP ([6]; presence vs absence of cAMP): ~25 fold
